Data: patent publication US8324380B2, “Amino-heteroaryl-containing prokineticin 1 receptor antagonists” (Janssen Pharmaceutica NV, priority 2007, dated 2012)
Read-outs that look alike come from different tables or passages of the source.

Molecular target: T1, GPR73 (prokineticin 1 receptor) (Homo sapiens, UniProt Q8TCW9)
T1 construct: expressed in transfected cells; host or cells: HEK 293
Experiment: PK1 functional assay: Ca2+ mobilization on the FLIPR
Type: cell-based
Details: for inhibition at 10 µM: read-out: Ca^2+ Mobilization % Inh @10 µM; for IC50: HEK 293 GPR73 cells, read-out: Ca^2+ Mobilization IC50
Description: At a time of 24 h prior to running the assay, in cell culture media (DMEM containing high Glucose and L-glutamine, 10% FBS, 1% Pen/Streptomycin, 1% Sodium Pyruvate, 20 mM HEPES, Zeocin 200 mg/L), 100 µL of 1.3*10^6/ml HEK 293 GPR73 (prokineticin 1 receptor) expressing cells were plated in a 96 well poly-d-lysine coated plate (Costar), and incubated at 37° C. and 5% CO2. On the day in which the assay was run, the media was removed and 200 µL of 5× Calcium Plus Dye (Molecular Devices) which was previously resuspended with 200 mL of assay buffer [HBSS w/Ca^2+ and Mg^2+ w/o phenol red, 20 mM HEPES, 0.1% BSA, 10 mL probenecid (710 mg probenecid in 5 mL of 1N NaOH, to which was then added 5 mL HBSS containing 20 mM HEPES)] was added to each well of the 96-well plate. The plate was incubated at 37° C. and 5% CO2 for 30 min in dark. The plate was removed and allowed to reach RT for 15 min in the dark. The assay was then run on the FLIPR. In Brief: base line read for 1 min, compound added (25 μL) and incubated for 4 min, 15 seconds, PK1 ligand preparation added (25 μL) for a final concentration of a previously determined EC50 and fluorescence was counted for 1 min, 45 seconds. Baseline is described as the amount of relative fluorescence read when buffer alone is added to cells. Baseline was subtracted from all wells. Percent of control was calculated as follows: (Baseline subtracted well value is divided by baseline subtracted max value)*100. Percent inhibition is 100 minus the percent of control value.
The IC50 is defined as the amount of a given compound required to inhibit 50% of the maximum signal that is generated by the concentration of PK1 preparation used in our assay. IC50 values were calculated using GraphPad Prism.

T1 sequence (Q8TCW9 whole entry, species assumed): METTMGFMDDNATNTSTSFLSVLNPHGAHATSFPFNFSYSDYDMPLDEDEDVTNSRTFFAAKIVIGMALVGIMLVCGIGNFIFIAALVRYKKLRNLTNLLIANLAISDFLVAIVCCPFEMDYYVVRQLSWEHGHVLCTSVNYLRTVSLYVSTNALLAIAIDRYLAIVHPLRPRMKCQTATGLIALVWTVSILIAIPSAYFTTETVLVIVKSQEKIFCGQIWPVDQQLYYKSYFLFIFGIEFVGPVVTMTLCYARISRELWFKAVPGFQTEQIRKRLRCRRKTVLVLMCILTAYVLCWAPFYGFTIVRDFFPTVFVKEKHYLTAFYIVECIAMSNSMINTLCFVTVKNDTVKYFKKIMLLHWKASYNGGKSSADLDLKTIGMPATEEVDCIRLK

SMILES | inhibition at 10 µM (10 µM) [%] | IC50 [nM] | inhibition at 10 µM (10 µM, (further determination)) [%] | IC50 (IC50 (further determination)) [nM]
COc1ccc(Cn2c(NCCNc3nc4ccccc4[nH]3)nc(=O)n(Cc3ccc(Cl)c(Cl)c3)c2=O)cc1 [Cpd 1, 6-[2-(1H-Benzoimidazol-2-ylamino)-ethylamino]-3-(3,4-dichloro-benzyl)-1-(4-methoxy-benzyl)-1H-[1,3,5]triazine-2,4-dione] | 40.4 | > 10000 |  | 
COc1ccc(Cn2c(NCCn3ccnc3N)nc(=O)n(Cc3ccc(F)cc3)c2=O)cc1 [Cpd 2, 6-[2-(2-Amino-imidazol-1-yl)-ethylamino]-3-(4-fluoro-benzyl)-1-(4-methoxy-benzyl)-1H-[1,3,5]triazine-2,4-dione] | 97 |  | 97 | 5
COc1ccc(Cn2c(NCCc3cnc(N)[nH]3)nc(=O)n(Cc3ccc(F)cc3)c2=O)cc1 [Cpd 4] | 97 | 48 | 96 | 42
COc1ccc(Cn2c(NCCn3c(N)nc4cc(F)ccc43)nc(=O)n(Cc3ccc(F)cc3)c2=O)cc1 [Cpd 5] | 102 | 69 |  | 
COc1ccc(Cn2c(NCc3c[nH]c(N)n3)nc(=O)n(Cc3ccc(F)cc3)c2=O)cc1 [Cpd 6] | 91 | 322 |  | 
COc1ccc(Cn2c(NCCn3c(N)nc4cc(C(F)(F)F)ccc43)nc(=O)n(Cc3ccc(F)cc3)c2=O)cc1 [Cpd 8] | 95 | 163 |  | 
COc1ccc(Cn2c(NCCn3c(N)nc4cc(S(C)(=O)=O)ccc43)nc(=O)n(Cc3ccc(F)cc3)c2=O)cc1 [Cpd 9] | 67 | 2290 |  | 
COc1ccc(Cn2c(NCCn3c(N)nc4ccc(Cl)cc43)nc(=O)n(Cc3ccc(F)cc3)c2=O)cc1 [Cpd 10] | 90 | 155 |  | 
COc1ccc(Cn2c(NCCn3c(N)nc4c(F)cccc43)nc(=O)n(Cc3ccc(F)cc3)c2=O)cc1 [Cpd 11] | 89 | 146 |  | 
COc1ccc(Cn2c(NCCN3Cc4ccccc4N=C3N)nc(=O)n(Cc3ccc(F)cc3)c2=O)cc1 [Cpd 12, 6-[2-(2-Amino-4H-quinazolin-3-yl)-ethylamino]-3-(4-fluoro-benzyl)-1-(4-methoxy-benzyl)-1H-[1,3,5]triazine-2,4-dione] | 94 | 28 |  | 
COc1ccc(Cn2c(C(=O)NCCn3c(N)nc4ccccc43)cc(=O)n(Cc3ccc(OC)cc3)c2=O)cc1 [Cpd 13, 1,3-Bis-(4-methoxy-benzyl)-2,6-dioxo-1,2,3,6-tetrahydro-pyrimidine-4-carboxylic acid [2-(2-amino-benzoimidazol-1-yl)-ethyl]-amide] | 51 | 7390 |  | 
COc1ccc(Cn2c(NCCn3c(N)nc4ccccc43)nc(=O)n(Cc3ccc(Cl)cc3)c2=O)cc1 [Cpd 14] | 95 | 77 |  | 
Nc1nc2ccccc2n1CCNc1nc(=O)n(Cc2ccc(F)cc2)c(=O)n1Cc1ccc(OC(F)(F)F)cc1 [Cpd 19] | 102 | 104 | 100 | 212
Nc1nc2ccccc2n1CCNc1nc(=O)n(Cc2ccc(F)cc2)c(=O)n1Cc1ccc(OC(F)F)cc1 [Cpd 20] | 103 | 53 | 101 | 52
Nc1nccn1CCNc1nc(=O)n(Cc2ccc(F)cc2)c(=O)n1Cc1ccc(F)cc1 [Cpd 21] | 37 | > 10000 |  | 
Nc1nccn1CCNc1nc(=O)n(Cc2ccc(F)cc2)c(=O)n1Cc1ccc(OC(F)(F)F)cc1 [Cpd 22] | 100 | 61 |  | 
Nc1nccn1CCNc1nc(=O)n(Cc2ccc(F)cc2)c(=O)n1Cc1ccc(OC(F)F)cc1 [Cpd 23] | 100 | 28 | 97 | 57
Nc1nc2ccc(F)cc2n1CCNc1nc(=O)n(Cc2ccc(F)cc2)c(=O)n1Cc1ccc(OC(F)F)cc1 [Cpd 25] | 87 | 170 |  | 
Nc1nc2cc(F)ccc2n1CCNc1nc(=O)n(Cc2ccc(F)cc2)c(=O)n1Cc1ccc(OC(F)F)cc1 [Cpd 26] | 92 | 81 | 88 | 15

SMILES | inhibition at 10 µM (10 µM) [%] | IC50 [nM] | inhibition at 10 µM (10 µM, (further determination)) [%] | IC50 (IC50 (further determination)) [nM]
Nc1nc2cc(C(F)(F)F)ccc2n1CCNc1nc(=O)n(Cc2ccc(F)cc2)c(=O)n1Cc1ccc(OC(F)F)cc1 [Cpd 27] | 85 | 310 |  | 
Nc1nc2c(F)cc(F)cc2n1CCNc1nc(=O)n(Cc2ccc(F)cc2)c(=O)n1Cc1ccc(OC(F)F)cc1 [Cpd 28] | 39 | > 10000 |  | 
Nc1nc2ccc(F)c(F)c2n1CCNc1nc(=O)n(Cc2ccc(F)cc2)c(=O)n1Cc1ccc(OC(F)F)cc1 [Cpd 29] | 83 | 406 |  | 
Nc1nc2ccc(Cl)cc2n1CCNc1nc(=O)n(Cc2ccc(F)cc2)c(=O)n1Cc1ccc(OC(F)F)cc1 [Cpd 30] | 86 | 252 |  | 
Nc1nc2cccc(F)c2n1CCNc1nc(=O)n(Cc2ccc(F)cc2)c(=O)n1Cc1ccc(OC(F)F)cc1 [Cpd 32] | 94 | 132 |  | 
Nc1nc2ccc(F)cc2n1CCNc1nc(=O)n(Cc2ccc(F)cc2)c(=O)n1Cc1ccc(OC(F)(F)F)cc1 [Cpd 33] | 93 | 323 |  | 
Nc1nc2cc(F)ccc2n1CCNc1nc(=O)n(Cc2ccc(F)cc2)c(=O)n1Cc1ccc(OC(F)(F)F)cc1 [Cpd 34] | 87 | 363 |  | 
Nc1nc2cc(C(F)(F)F)ccc2n1CCNc1nc(=O)n(Cc2ccc(F)cc2)c(=O)n1Cc1ccc(OC(F)(F)F)cc1 [Cpd 35] | 59 | 5010 |  | 
Nc1nc2c(F)cc(F)cc2n1CCNc1nc(=O)n(Cc2ccc(F)cc2)c(=O)n1Cc1ccc(OC(F)(F)F)cc1 [Cpd 36] | 50 | 8240 |  | 
Nc1nc2ccc(F)c(F)c2n1CCNc1nc(=O)n(Cc2ccc(F)cc2)c(=O)n1Cc1ccc(OC(F)(F)F)cc1 [Cpd 37] | 72 | 2200 |  | 
Nc1nc2ccc(Cl)cc2n1CCNc1nc(=O)n(Cc2ccc(F)cc2)c(=O)n1Cc1ccc(OC(F)(F)F)cc1 [Cpd 38] | 84 | 670 |  | 
Nc1nc2c(F)cccc2n1CCNc1nc(=O)n(Cc2ccc(F)cc2)c(=O)n1Cc1ccc(OC(F)(F)F)cc1 [Cpd 39] | 80 | 380 |  | 
Nc1nc2cccc(F)c2n1CCNc1nc(=O)n(Cc2ccc(F)cc2)c(=O)n1Cc1ccc(OC(F)(F)F)cc1 [Cpd 40] | 91 | 969 |  | 
NC1=Nc2cccc(Cl)c2CN1CCNc1nc(=O)n(Cc2ccc(F)cc2)c(=O)n1Cc1ccc(OC(F)F)cc1 [Cpd 42] | 101 | 63 |  | 
NC1=Nc2ccc(Cl)cc2CN1CCNc1nc(=O)n(Cc2ccc(F)cc2)c(=O)n1Cc1ccc(OC(F)F)cc1 [Cpd 43] | 101 | 111 |  | 
NC1=Nc2cc(Cl)ccc2CN1CCNc1nc(=O)n(Cc2ccc(F)cc2)c(=O)n1Cc1ccc(OC(F)F)cc1 [Cpd 44] | 103 | 118 |  | 
NC1=Nc2ccc(F)cc2CN1CCNc1nc(=O)n(Cc2ccc(F)cc2)c(=O)n1Cc1ccc(OC(F)F)cc1 [Cpd 45] | 101 | 92 |  | 
NC1=Nc2cc(F)ccc2CN1CCNc1nc(=O)n(Cc2ccc(F)cc2)c(=O)n1Cc1ccc(OC(F)F)cc1 [Cpd 46] | 101 | 61 |  | 
